# Assay results: publication PMC6348381, “Discovery of an MLLT1/3 YEATS Domain Chemical Probe” (Angewandte Chemie (International Ed. in English), 2018)
# What was measured:
# MLLT3 = target: T1, MLLT3 (Homo sapiens, UniProt P42568); experiment: NanoBRET assay, full-length MLLT3-NanoLuc / histone H3.3-HaloTag in HEK293 cells; type: cell-based; conditions: 24 h
# T1 construct: in full length MLLT3 N-terminal NanoLuc, Histone; host or cells: HEK293
# T1 sequence (P42568 1-568): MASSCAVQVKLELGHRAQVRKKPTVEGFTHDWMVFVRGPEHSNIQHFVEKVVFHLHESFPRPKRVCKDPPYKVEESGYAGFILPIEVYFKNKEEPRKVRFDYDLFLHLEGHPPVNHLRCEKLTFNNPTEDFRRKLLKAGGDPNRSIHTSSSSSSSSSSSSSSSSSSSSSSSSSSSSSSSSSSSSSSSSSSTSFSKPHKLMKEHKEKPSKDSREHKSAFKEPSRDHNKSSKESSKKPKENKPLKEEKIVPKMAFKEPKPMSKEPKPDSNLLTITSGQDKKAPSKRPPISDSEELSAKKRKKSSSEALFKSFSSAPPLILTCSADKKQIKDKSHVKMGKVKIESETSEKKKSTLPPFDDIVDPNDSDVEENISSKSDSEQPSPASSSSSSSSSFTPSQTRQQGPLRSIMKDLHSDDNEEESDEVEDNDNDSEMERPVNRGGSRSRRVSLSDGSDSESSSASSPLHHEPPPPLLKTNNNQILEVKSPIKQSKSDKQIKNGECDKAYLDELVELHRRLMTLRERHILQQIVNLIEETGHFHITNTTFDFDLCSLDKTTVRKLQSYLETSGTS
# Description: II.V NanoLuciferase Bioluminescent Resonance Energy Transfer (NanoBRET) Assay[2]
# HEK293 cells ([…]) were plated in each well of a 6-well plate after 6 h cells were co-transfected with Histone H3.3-HaloTag (NM_002107) and a NanoLuciferase fusion of MLLT1 or MLLT3 (WT sequences from Promega HaloTag® human ORF in pFN21A) at a 1:500 and 1:10 (NanoLuc® to HaloTag®) ratio respectively with FuGENE HD transfection regent. Sixteen hours post-transfection, cells were collected and exchanged into media containing phenol red-free DMEM and 4% FBS in the absence (control sample) or the presence (experimental sample) of 100 nM NanoBRET 618 fluorescent ligand (Promega).
# Cell density was adjusted to 2 x 10^5 cells/mL and then seeded 100 µL/well in a white 96-well plate (Corning Costar #3917). Compounds were then added directly to media (in the presence of SAHA 2.5 µM) at final concentrations 0.01-30 μM or an equivalent amount of DMSO as a vehicle control, and the plates were incubated for 24 h at 37 °C in the presence […]
# NanoBRET Nano-Glo substrate (Promega) was added to both control and experimental samples at a final concentration of 10 µM. Readings were performed within 5 minutes using a ClarioSTAR (BMG labtech) equipped with LP 480 and 610 nm filters. A corrected BRET ratio was calculated and is defined as the ratio of the emission at 610 nm/[…] for experimental samples minus the emission at 6 10 nm/640 nm for control samples (not incubated with NanoBRET fluorescent ligand). BRET ratios are expressed as milliBRET units (mBU), where 1 mBU corresponds to the corrected BRET ratio multiplied by 1000.
# 3.3 C-terminal HaloTag in HEK293 cells. Treatment with SAHA (2.5 µM) alone increases MLLT3- […]
# dependent manner. Mean±SD of BRET ratio (mBU), n=4 technical replicates.
# (also on this page, place not known: 5) -well H3.3 -HaloTag pFN21A ) ( NanoLuc® H aloTag®) post -transfection, red -free Nano -Glo 10 5 6 10 6 10 l igand). cells . […]
# MV4;11 AML cells = experiment: qPCR gene expression in MV4;11 cells; type: cell-based, human; conditions: 1 μM, 72 h
# Description: II.XII Analysis of gene expression by quantitative polymerase chain reaction (qPCR) […]
# MV4;11 cells were cultured at 37 °C in a humidified 5% CO2 atmosphere in RPMI medium containing 10% FBS and 1% L-glutamine. Cells were seeded at a density of 2 x 10^6 cells/well in 6 well plates pre-coated in polyhema, to enable suspension culture. Cells were […]
# and washing with PBS, RNA was extracted from cells using RNeasy Mini Kit (Qiagen), following the manufacturer’s protocol. Total RNA was quantified by Nanodrop and 500 ng of RNA was converted to cDNA using GoScript Reverse Transcription System (Promega). The final cDNA products were quantified by QPCR using FAM dye-labelled Taqman primers and probe sets (see table below). Data was analysed using the comparative cycle threshold (CT) method where CT values were normalised by subtracting that from an endogenous housekeeping gene (VIC dye-labelled ACTB). The gene expression levels from compound-treated cells are presented as relative to those of DMSO treated control cells. Statistical analyses were carried out using two-way ANOVA (GraphPad Prism 7).
# ACTB (Beta Actin) Endogenous Control 4326315E
# Supplementary Table 4. Taqman Gene Expression Assays (Life Technologies). Taqman MGB probes have 5’ FAM reporter dye (or VIC) and 3’ non-fluorescent quencher. […]
structure (smiles),measurement,setting,value
C[C@H]1CCCN1Cc1nc2cc(NC(=O)c3ccc4c(cnn4C)c3)ccc2[nH]1 [Compound 92],IC50,MLLT3; in the presence of 2.5 μM SAHA,400 ± 80 nM
same,MLLT3-Histone 3.3 interaction (mBU),MLLT3; representative assay,can reduce this interaction
same,"gene expression of MYC, MPO, DDN, CTSG, CD86 (qPCR)",MV4;11 AML cells,changed gene expression of 3/5 genes
same,CD86 gene expression (qPCR),MV4;11 AML cells; compared to DMSO,increase
same,DDN gene expression (qPCR),MV4;11 AML cells; compared to DMSO,reduction
same,MYC gene expression (qPCR),MV4;11 AML cells; compared to DMSO,reduction
